Reference: patent US7598032B2, “Thermostable DNA polymerases incorporating nucleoside triphosphates labeled with fluorescent dyes” (Roche Molecular Systems, priority 1997, dated 2009)

Assays:
Assay type in all cases: biochemical
[1] = standard PCR reaction with cyanine-labeled dNTPs; conditions: compared with the wild-type enzyme
Description: Although the examples provided herein use dideoxynucleotides labeled with fluorescein family dyes, the use of other unconventional nucleotides and fluorescent dyes is also within the scope of this invention. Other unconventional nucleotides include fluorescently-labled dNTPs, which can be used to label the products of DNA synthesis, and fluorescently-labled rNTPs, which can be used to label the primer extension products. Other dyes include other negatively charged fluorescent dyes, such as BODIPY, which are structurally and chemically similar to fluorescein. Other dyes also include cyanine dyes. Cyanine-labeled dNTPs were added to a standard PCR reaction which included a Taq DNA polymerase with the […] mutation (and a G46D mutation). […] Thus, in this aspect, a method of labeling DNA of the invention uses a native or mutant polymerase of the invention in combination with a nucleotide labeled with either a negatively charged fluorescent dye or a cyanine dye. In one embodiment, the DNA labeling method of the invention comprises: […]

[2] = system: primer DG48 annealed to M13 mp18 template; experiment: limiting template, primer extension competition assay (ddNTP incorporation assay); conditions: ratio of concentrations for 50% inhibition by Zowie-ddCTP vs. ddCTP
Procedure: The ability of the enzymes of this invention to efficiently incorporate nucleotides labeled with fluorescein family dyes is measured by ddNTP incorporation assays. One such assay is a primer extension competition assay conducted under conditions of limiting template. In this assay, a primer DG48 (5′-[…]), (SEQ ID NO: 11), bound to M13 mp18 template (Innis et al., 1988, Proc. Natl. Acad. Sci. USA 85:9436) is extended in the presence of [α-^33P]dCTP and excess enzyme with various levels of a fluorescently labeled ddNTP, Zowie-ddCTP. Because the incorporation of a ddCTP residue terminates the extension reaction, the more readily a DNA polymerase incorporates a ddCTP into an extended primer, the less [α-^33P]dCTP can be incorporated. Thus, as the efficiency of fluorescently labeled ddCTP incorporation increases, the extent of inhibition of DNA synthesis is increased. The reactions were also performed with various levels of an unlabeled ddCTP. […]
The relative abilities of G46D F667Y Taq, G46D F667Y E681K Taq and F730Y Tma30 DNA polymerases to incorporate a fluorescein dye family-labeled ddCTP were compared by use of a limiting template, primer extension competition assay. […] In this competition assay, because the incorporation of a ddCTP terminates the extension reaction, the more readily the polymerase incorporates a ddCTP into an extended primer, the less [α-^33P]dCTP can be incorporated. […]

[3] = system: primer annealed to an M13 template; experiment: Extension rate assay; conditions: 75° C
Procedure: The extension rate of G46D F667Y Taq and G46D F667Y E681K Taq were determined using an extension rate assay. In this experiment, the enzymes were used to extend a primer annealed to an M13 template in the presence of [α-^33P]dCTP. The extension reactions were denatured and the products analyzed by denaturing agarose gel electrophoresis.
The assay was performed as previously described (Lawyer et al., 1989, J. Biol. Chem. 264:6427) including the following modifications. The assay mixture was composed so the final concentration was 50 mM Bicine pH 8.3, 25° C., 2.5 mM MgCl2, 1 mM β-mercaptoethanol, 200 μM each of dATP, dGTP and dTTP (Perkin-Elmer), 100 μM dCTP (Perkin-Elmer) containing [α-^33P]dCTP (New England Nuclear, Boston, Mass.). M13 mp18 (Perkin-Elmer) was annealed to primer DG48, (SEQ ID NO: 11), and the equivalent of 0.085 pmoles of the annealed template was added to the assay mixture for each reaction. Forty-five μl of the assay mixture with template DNA was added to each of fourteen 0.5 ml eppendorf tubes. Each tube was preincubated at 75° C. for at least 30 seconds before the start of the polymerase reaction.
Polymerization was initiated in six of the fourteen assay tubes with 5 μl of G46D F667Y Taq DNA polymerase (2.5 units) or G46D F667Y E681K Taq DNA polymerase (1.25 units). Both enzymes were prepared as in Example I and the concentration used represents a predetermined excess amount of enzyme for the amount of substrate in the assay. As a control for the level of background, the remaining negative control was initiated with enzyme dilution buffer rather than polymerase. All reaction tubes were immediately vortexed briefly and incubated at 75° C. Two of the six tubes containing G46D F667Y Taq DNA polymerase were incubated 3 minutes, two for 6 minutes and two for 10 minutes. Similarly, two of the tubes started with G46D F667Y E681K Taq DNA polymerase were incubated for 30 seconds, two for 1 minute and two for 2 minutes. The control tubes were incubated for 3 minutes. The reactions were stopped by addition of 10 μl 60 mM EDTA and stored at 0° C.
For each reaction, a 25 μl aliquot of the 60 μl reaction was diluted with 1 ml 2 mM EDTA, 50 μg/ml sheared salmon sperm DNA as a carrier. The DNA was precipitated with TCA using standard procedures and collected on GF/C filter discs (Whatman). The amount of incorporated [α-^33P]dCMP was determined for each sample.
The remaining 35 μl of each duplicated were combined and the 70 μl sample was ethanol precipitated, dried and resuspended in 50 mM NaOH, 1 mM EDTA. Aliquots were removed from these samples such that an equal number of α-^33P] counts were taken from each. These aliquots were loaded on an 0.9% alkaline agarose gel, electrophoresed, dried and autoradiographed as previously described (Maniatis et al., 1982, In Molecular Cloning: A Laboratory Manual, Cold Spring Harbor Laboratory, Cold Spring Harbor, N.Y.) Bacteriophage lambda DNA cut with restriction enzyme HindIII (BRL) and 5′ end-labeled with [^32P] was used as a molecular weight standard.
The length in base pairs of the extension product in each sample was determined by comparison of the migration distance of each sample with the distance migrated by the lambda DNA size standard. The number of base pairs in each product was divided by the number of seconds each extension reaction incubated to give the extension rate as shown below.

[4] = screen of transformants for incorporation of [α-32P]Tet-dCTP; conditions: in comparison to the wild-type enzyme
Description: The C-terminal amino acid portion of Taq DNA polymerase encodes the polymerase active site domain (Lawyer et al., 1993, PCR Methods and Applications 2:275-287, Freemont et al., 1986, Proteins: Structure, Function and Genetics 1:66-73, which are incorporated herein by reference). A DNA fragment containing this region was isolated from the full-length Taq gene and mutagenized by PCR amplification in the presence of manganese (Leung et al, 1989, Technique 1(1):11-15). For this example, all restriction enzymes were purchased from New England Biolabs, Beverly Mass. The mutagenized fragments were digested with PstI and BglII and cloned into a Taq expression plasmid, pLK102, which had been digested with PstI and BglII. Plasmid pLK102 is a derivative of pLK101 in which the 900 bp PstI-BglII fragment is replaced by a short PstI-BglII linker. […]
The mutagenized Taq expression plasmid of mutant CS1 was digested with HindIII/NheI and the resulting restriction fragment was subcloned into the wild-type gene of pLK101, replacing the unmutagenized HindIII/NheI fragment, to determine which portion of the mutagenized Taq polymerase gene was responsible for the altered phenotype. […] Subsequent subclone analysis determined that the mutation was located in the 265 bp BamHI-NheI fragment.

G46D E681K Taq: thermostable Taq DNA polymerase with G46D and E681K mutations, encoded by plasmid pLK112
incorporation of cyanine-labeled dNTPs into amplification products [1]: higher than for the wild-type enzyme

G46D F667Y Taq: Taq DNA polymerase having an F667Y mutation and a G46D mutation; known as AmpliTaq, FS [reference compound]
Zowie-ddCTP/ddCTP (ratio of concentrations for 50% inhibition) [2]: 25 | extension rate, Base Pairs/Sec ([3]; Time 3 min.): 12.5 Base Pairs/Sec | extension rate, Base Pairs/Sec ([3]; Time 6 min.): 12.2 Base Pairs/Sec | extension rate, Base Pairs/Sec ([3]; Time 10 min.): 11.8 Base Pairs/Sec

Mutant CS1: mutagenized Taq DNA polymerase clone (plasmid pCS1) carrying the E681K mutation
ability to incorporate [α-32P]Tet-dCTP [4]: more efficiently incorporate
